Where a name gives a salt, the structure may show the parent alone.
Assays:
MDA-MB-468 cells [1] = assay: EGF-induced epithelial-to-mesenchymal transition (E-cadherin/phalloidin imaging, Western blot of markers, CD44/CD24 flow cytometry); format: cell-based, human; settings: 72 h; E-cadherin, phalloidin, fibronectin, vimentin, Zeb1, Snail, Slug, CD44high/CD24low proportion
Description: (§1) Cell culture. Dulbecco's Phosphate-Buffered Saline (14190-094, 500 mL, Gibco), Dulbecco's Modified Eagle Medium (DMEM)/F12 (31331-028, 500 mL, Gibco), DMEM GlutaMAX™ (61965059, Thermo Fisher Scientific), Fetal Bovine Serum (FBS, 10270-106, Gibco), Hydrocortisone (H0888, Sigma Aldrich), Insulin (I0516 or I9278, Sigma Aldrich), PEN-STREP (DE17-602E, BioWhittaker, Lonza), Puromycin dihydrochloride (A11138-02, Life Technologies). MCF-7 (ATCC®, HTB-22™), MDA-MB-231 (ATCC®, HTB-26™), MDA-MB-468 (ATCC®, HTB-132™) and circulating tumor cells were grown in DMEM supplemented with 10% FBS and 1% penicillin (100 U/mL), streptomycin (100 μg/mL) and incubated at 37° C. with 5% CO2. To induce EMT, cells were treated with epidermal growth factor EGF (100 ng/ml) (Miltenyi Biotec) for 72 h. The human mammary epithelial cell line infected with a retrovirus carrying hTERT, SV40 and the oncogenic allele HrasV12, named HMLER cells were a generous gift from A. Puisieux. HMLER cells were cultured in DMEM/F12 supplemented with 10% FBS, 10 μg/mL insulin, 0.5 μg/mL hydrocortisone, 10 ng/ml hEGF, and 0.5 μg/mL puromycin. A mycoplasma test was performed using PCR mycoplasma detection kit (G238, Applied Biological Materials).
Western blotting. […] Extracts were incubated at 37° C. for 1 h.
(§2) Flow cytometry. Metal-specific probes were synthesized as previously described.

MDA-MB-468 cells [2] = assay: Mitochondrial copper(II) levels, turn-off fluorescent probe (microscopy, flow cytometry); format: cell-based, human; settings: 48 h, reduction in fluorescence, metformin 12 mM, metforminyn 2 mM unless stated otherwise
Description: FIG. 2. […] Scale bar, 10 μm. […] Scale bar, 10 μm.
as §2
Copper and iron levels. Cells were incubated with the relevant probes as described in Reagents section. Cells were then analyzed either by fluorescence microscopy or flow cytometry as described in Cell Imaging and Flow Cytometry sections.

[3] = system: MDA-MB-468 triple negative breast cancer cells; assay: Cell viability (CellTiter-Blue), epithelial and mesenchymal (EGF-induced) states, FIG. 1C; format: cell-based, human; settings: MDA-MB-468 epithelial/mesenchymal (EGF) states, condition not named
Description: (§3) FIG. 1. […] (FIG. 1B) Dose response viability curves of cancer cells treated as indicated for 72 h. […] (FIG. 1D) Dose response viability curves of HMLER cells in epithelial and mesenchymal states treated as indicated for 72 h. Data points and error bars, mean values and s.d. of three independent biological replicates.
as §1
(§4) Cell viability. Cell viability was carried out by plating 1000 cells/well in 96-well plates using CellTiter-Blue® viability assay according to the manufacturer's protocol. Cells were treated as indicated for 72 h. CellTiter-Blue® reagent (G8081, Promega) was added after 72 h treatment and cells were incubated for 1-2 h before recording fluorescence intensities (ex. 560/20 nm; em. 590/10 nm) using a Perkin Elmer Wallac 1420 Victor2 Microplate Reader.

MDA-MB-468 cells [4] = assay: Cell death (Annexin V-FITC/PI) with cell death inhibitors; format: cell-based, human; settings: Z-VAD-FMK 50 μM, ferrostatin-1 10 μM, necrostatin-1 20 μM, 72 h; not rescued by ferrostatin-1 and necrostatin-1
Description: Cell death. […] Data were analyzed by a LSRFortessaTM flow cytometer (BD Biosciences, San Jose, CA) and processed using Cell Quest (BD Biosciences) and FlowJo (FLOWJO, LLC) software.

MDA-MB-468 cells [5] = assay: Mitochondrial membrane potential (MitoProbe JC-1); format: cell-based, human
Description: Mitochondrial membrane potential. Measurements were performed using the MitoProbe™ JC-1 assay kit (M34152, Thermo Fischer Scientific) according to the manufacturer's protocol. In brief, cells were treated with 2 μM JC-1 or CCCP ([…]) control for the indicated time.

[6] = Cyclic voltammetry of iron solutions
[7] = system: triple negative human breast cancer cells and circulating tumor cells (CTC) from patients with colorectal cancer; assay: Cell viability (CellTiter-Blue), dose response of cancer cells, FIG. 1B; format: cell-based; settings: 72 h, cell line not named
Description: as §3, §1, §4

[8] = Cyclic voltammetry of a copper(I) solution; settings: metformin 2 mol equiv, quasi-reversible couples
Description: Cyclic voltammetry. Cyclic voltammetry experiments were performed with a three-electrode cell under argon. Saturated Calomel Electrode (SCE) was used as reference, a steady Glassy Carbon (GC) electrode of diameter 3 mm was selected as working electrode and a Platinum wire as counterelectrode. All cyclic voltammograms were recorded at RT with a μ-autolab III from Metrohm using Nova software with a scan rate of 0.5 V/s. MeCN was used as a degassed HPLC grade from Carlo Erba. Water was mQ H2O. Solutions with copper were prepared with 0.3 M nBu4NBF4 (180 mg) in MeCN (1.8 mL) and 200 μl of a 20 mM Cu(MeCN)4PF6 stock solution in MeCN (7.4 mg/mL).

MDA-MB-468 cells [9] = assay: Mitochondrial ROS levels (MitoSOX Red, flow cytometry); format: cell-based, human
Description: ROS levels. Mitochondrial ROS was measured using MitoSOX™ Red Mitochondrial Superoxide Indicator (M36008, Thermo Fisher Scientific) according to the manufacturer's protocol.

MDA-MB-468 cells [10] = assay: Mitochondrial morphology; format: cell-based, human

In the case of `CN(C)C(=N)NC(=N)N` [metformin, 1,1-Dimethylbiguanide hydrochloride], the “induction of EMT using EGF” value (MDA-MB-468 cells [1]) is reported as “prevented”, the “mitochondrial levels of copper(II)” value (MDA-MB-468 cells [2]) is reported as “increased levels of copper(II)” and the IC50 ([3]; Homo sapiens, MDA-MB-468, 72 h, 1st of four values listed) is reported as 24.3 mM. For the same molecule, the IC50 ([3]; Homo sapiens, MDA-MB-468, 72 h, 2nd of four values listed) was 12.1 mM, the IC50 ([3]; Homo sapiens, MDA-MB-468, 72 h, 3rd of four values listed) was 5.5 mM and the IC50 ([3]; Homo sapiens, MDA-MB-468, 72 h, 4th of four values listed) was 2.3 mM. The “rescue of compound-induced cell death by inhibitors” value (MDA-MB-468 cells [4]) was “rescued by the caspase 3 inhibitor Z-VAD-FMK”, the mitochondrial membrane potential (MDA-MB-468 cells [5]) was “reduction of mitochondrial membrane potentials” and the “redox properties of iron (cyclic voltammetry)” value [6] was “altered the redox properties of this metal”. The IC50 ([7]; Homo sapiens, 1st of four values listed 'respectively') was 12.1 mM, the IC50 ([7]; Homo sapiens, 2nd of four values listed 'respectively') was 15.1 mM and the IC50 ([7]; Homo sapiens, 3rd of four values listed 'respectively') was 7.7 mM. The IC50 ([7]; Homo sapiens, 4th of four values listed 'respectively') was 10.9 mM, the “redox properties of copper (cyclic voltammetry)” value [8] was “altered the redox properties of copper” and the “mitochondrial reactive oxygen species (ROS) levels” value (MDA-MB-468 cells [9]) was “increased levels of reactive oxygen species (ROS)”. The mitochondrial morphology (MDA-MB-468 cells [10]) was “alteration of mitochondrial morphology”.
In the case of `C#CCCN(C)C(=N)NC(=N)N` [metforminyn], the “induction of EMT using EGF” value (MDA-MB-468 cells [1]) is reported as “prevented”, the “mitochondrial levels of copper(II)” value (MDA-MB-468 cells [2]) is reported as “increased levels of copper(II)” and the IC50 ([3]; 72 h, 1st of four values listed) is reported as 12.6 mM. For the same molecule, the IC50 ([3]; 72 h, 2nd of four values listed) was 5.2 mM, the IC50 ([3]; 72 h, 3rd of four values listed) was 0.8 mM and the IC50 ([3]; 72 h, 4th of four values listed) was 0.9 mM. For the same molecule, the “rescue of compound-induced cell death by inhibitors” value (MDA-MB-468 cells [4]) was “rescued by the caspase 3 inhibitor Z-VAD-FMK”, the mitochondrial membrane potential (MDA-MB-468 cells [5]) was “reduction of mitochondrial membrane potentials” and the IC50 ([7]; 1st of four values listed 'respectively') was 2.5 mM. For the same molecule, the IC50 ([7]; 2nd of four values listed 'respectively') was 4.7 mM, the IC50 ([7]; 3rd of four values listed 'respectively') was 2.8 mM and the IC50 ([7]; 4th of four values listed 'respectively') was 3.5 mM. The “mitochondrial reactive oxygen species (ROS) levels” value (MDA-MB-468 cells [9]) was “increased levels of reactive oxygen species (ROS)” and the mitochondrial morphology (MDA-MB-468 cells [10]) was “alteration of mitochondrial morphology”.
